Reference: PMC2678953 (Journal of peptide science : an official publication of the …, 2008)

Tests used:
GIVA cPLA2 = target: T1, GIVA cPLA2 (Homo sapiens, UniProt P47712); test: mixed-micelle PLA2 activity assay; type: biochemical
T1 sequence (P47712 1-749): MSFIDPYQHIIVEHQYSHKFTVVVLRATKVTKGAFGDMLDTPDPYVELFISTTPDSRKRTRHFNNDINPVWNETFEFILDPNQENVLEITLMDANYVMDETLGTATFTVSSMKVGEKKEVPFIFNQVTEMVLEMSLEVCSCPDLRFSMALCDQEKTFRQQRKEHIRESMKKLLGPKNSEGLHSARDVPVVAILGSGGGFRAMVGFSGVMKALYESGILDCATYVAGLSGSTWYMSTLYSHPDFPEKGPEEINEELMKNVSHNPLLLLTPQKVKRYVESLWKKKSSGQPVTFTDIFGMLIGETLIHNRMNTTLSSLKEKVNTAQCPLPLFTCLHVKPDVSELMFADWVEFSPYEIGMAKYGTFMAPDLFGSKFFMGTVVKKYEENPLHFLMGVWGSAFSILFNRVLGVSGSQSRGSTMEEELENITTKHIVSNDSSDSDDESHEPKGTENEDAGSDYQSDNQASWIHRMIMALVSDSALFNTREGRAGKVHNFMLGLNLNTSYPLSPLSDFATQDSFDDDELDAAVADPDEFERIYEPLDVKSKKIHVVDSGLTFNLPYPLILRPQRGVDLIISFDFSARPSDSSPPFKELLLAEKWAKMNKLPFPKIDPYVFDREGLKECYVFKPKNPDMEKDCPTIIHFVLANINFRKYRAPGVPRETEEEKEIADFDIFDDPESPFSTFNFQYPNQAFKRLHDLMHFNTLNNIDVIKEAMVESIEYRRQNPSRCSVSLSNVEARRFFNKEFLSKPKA

GVIA iPLA2 = target: T2, GVIA iPLA2 (Homo sapiens, UniProt O60733); test: in vitro GVIA iPLA2 activity assay, XI; type: biochemical
T2 sequence (O60733 1-806): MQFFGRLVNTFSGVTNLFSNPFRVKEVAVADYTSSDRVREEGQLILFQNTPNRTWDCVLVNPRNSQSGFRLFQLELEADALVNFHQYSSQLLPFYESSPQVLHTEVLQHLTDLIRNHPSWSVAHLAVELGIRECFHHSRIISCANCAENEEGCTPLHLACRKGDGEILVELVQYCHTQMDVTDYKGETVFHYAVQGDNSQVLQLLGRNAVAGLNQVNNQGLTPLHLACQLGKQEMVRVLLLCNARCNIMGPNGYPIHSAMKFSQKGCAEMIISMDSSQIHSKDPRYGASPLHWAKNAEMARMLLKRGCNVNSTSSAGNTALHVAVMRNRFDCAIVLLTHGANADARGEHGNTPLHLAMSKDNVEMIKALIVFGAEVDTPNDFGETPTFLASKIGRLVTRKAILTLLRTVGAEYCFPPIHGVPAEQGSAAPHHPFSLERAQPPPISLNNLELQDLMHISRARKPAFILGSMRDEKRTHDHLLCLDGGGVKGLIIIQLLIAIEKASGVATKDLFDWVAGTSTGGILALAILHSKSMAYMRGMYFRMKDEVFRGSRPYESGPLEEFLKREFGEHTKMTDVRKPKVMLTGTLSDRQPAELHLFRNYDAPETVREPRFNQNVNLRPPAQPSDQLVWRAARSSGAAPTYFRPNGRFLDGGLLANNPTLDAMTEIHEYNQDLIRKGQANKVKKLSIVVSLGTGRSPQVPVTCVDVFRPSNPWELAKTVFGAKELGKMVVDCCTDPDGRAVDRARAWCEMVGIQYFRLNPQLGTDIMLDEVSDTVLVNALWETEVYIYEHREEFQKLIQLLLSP

Row | SMILES | GIVA cPLA2 (GIVA cPLA2) | GVIA iPLA2 (GVIA iPLA2)
1 | CCCCCCCCCCCCCCC(=O)C(=O)NCCCC(=O)N(C)S(=O)(=O)c1ccc(C)cc1 [compound 20, N-[4-(N,4-Dimethylphenylsulfonamido)-4-oxobutyl)-2-oxohexadecanamide] | 0.033 ± 0.018 mole fraction (XI(50)) | –
2 | CCCCCCCCCCCCCCC(=O)C(=O)NCCCNS(=O)(=O)c1ccc(C)cc1 [5a, N-(3-(4-Methylphenylsulfonamido)propyl)-2-oxohexadecanamide] | 0.055 ± 0.006 mole fraction (XI(50)) | 0.076 ± 0.020 mole fraction (XI(50))
3 | CCCCCCCCCCCCCCC(=O)C(=O)N[C@@H](CCCC)CCCNS(C)(=O)=O [14a, (S)-N-[1-(Methylsulfonamido)octan-4-yl]-2-oxohexadecanamide] | 0.029 ± 0.019 mole fraction (XI(50)) | 0.060 ± 0.037 mole fraction (XI(50))
4 | CCCCCCCCCCCCCCC(=O)C(=O)N[C@@H](CCCC)CCCNS(=O)(=O)c1ccc(C)cc1 [14b, (S)-N-[1-(4-Methylphenylsulfonamido)octan-4-yl]-2-oxohexadecanamide] | 0.033 ± 0.018 mole fraction (XI(50)) | –
